How the values were obtained:
Type in all cases: in vivo, mouse
5XFAD mice = experiment: Object location test (OLT) in 5XFAD mice; details: 2 mg/Kg in drinking water, 4 weeks, vs 5XFAD Control
Procedure: (§1) Four-month-old female and male Wt and 5XFAD mice (n = 32) were used to carry out cognitive and molecular analyses. […] The animals had free access to food and water and were kept under standard temperature conditions (22 ± 2 °C) and 12 h/12 h light/dark cycles (300 lx/0 lx). […] After 4 weeks of treatment, cognitive tests, including short- and long-term memory and OLT, were performed to study the effects of treatment on learning and memory. Weight and water consumption were controlled each week, and the LSL33 concentration was adjusted accordingly to reach the optimal dose until euthanasia.
The OLT evaluated the spontaneous tendency of rodents to spend more time exploring a novel object location than a familiar object location and recognizing when an object has been relocated. OLT was performed using a white plywood apparatus (50 × 50 × 25 cm), in which three walls were white and one was black. On the first day, animals were just habituated to the empty open-field arena for 10 min. On the second day, two objects were placed in front of the black wall, equidistant from each other and the wall. The objects were 10 cm high and identical. […] Trials were recorded using a camera mounted above the open field area, and the total exploration time was determined by scoring TN and TO. DI was calculated, defined as (TN−TO)/(TN+TO). […]

PSD95 = experiment: Western blot of hippocampal PSD95 in 5XFAD mice; details: 5XFAD hippocampus, 2 mg/Kg, vs 5XFAD Control
Procedure: as §1
(§2) Three days after cognitive tests, mice were euthanized for protein extraction and RNA and DNA isolation. After euthanasia, the brains were immediately removed from the skulls, and the hippocampi were dissected, frozen, and maintained at −80 °C.
For western blotting (WB), aliquots of 20 μg of hippocampal protein were used. […]
The membranes were washed and incubated with secondary antibodies for 1 h at room temperature. […] Protein loading was routinely monitored by immunodetection of glyceraldehyde-3-phosphate dehydrogenase (GAPDH).
(§3) Figure 7 Results from an in vivo study of synaptic plasticity markers. (A) Representative protein levels and quantification by WB for PSD95. (B,C) Representative gene expression for Ngf and Bdnf Gene expression levels were determined by real-time PCR. […]

[1] = test system: Ngf, Bdnf, Tnf-a, Il-6 gene expression; experiment: Real-time PCR gene expression in hippocampus of 5XFAD mice; details: 2 mg/Kg
Procedure: as §1, §2
Total RNA isolation was carried out using TRIzol® reagent according to the manufacturer’s instructions. The yield, purity, and quality of RNA were determined spectrophotometrically with a NanoDrop™ ND-1000 apparatus (Thermo Scientific, Waltham, MA, USA) and an Agilent 2100B Bioanalyzer (Agilent Technologies, Santa Clara, CA, USA). RNA samples with 260/280 ratios and RNA integrity numbers (RINs) higher than 1.9 and 7.5, respectively, were selected. A reverse transcription-polymerase chain reaction (RT-PCR) was performed. Briefly, 2 μg of messenger RNA (mRNA) was reverse-transcribed using a high-capacity cDNA reverse transcription kit (Applied Biosystems, Foster City, CA, USA).
SYBR® Green real-time PCR was performed on a StepOnePlus Detection System (Applied Biosystems) with SYBR® Green PCR master mix (Applied Biosystems). Each reaction mixture contained 6.75 μL of complementary DNA (cDNA) (with a concentration of 2 μg), 0.75 μL of each primer (with a concentration of 100 nM), and 6.75 μL of SYBR® Green PCR master mix (2×).
The data were analyzed utilizing the comparative cycle threshold (Ct) (ΔΔCt) method, in which the levels of a housekeeping gene are used to normalize differences in sample loading and preparation. Normalization of expression levels was performed with β-actin for SYBR® Green-based real-time PCR. Each sample was analyzed in duplicate, and the results represent the n-fold differences in the transcript levels among different groups.
as §3, with “PCR. The data correspond to the mean ± SEM (n = 3–5 mice per group).” for “PCR.”
Figure 8 Results from an in vivo study Neuroinflammatory markers. Representative gene expression for Tnf-a and Il-6 Gene expression levels were determined by real-time PCR. […]

[2] = 5XFAD hippocampus, vs 5XFAD Control

Cl.c1ccc2sc(-c3ncc[nH]3)cc2c1 [LSL33, 2-(Benzo[b]thiophene-2-yl)-1H-imidazole hydrochloride]
OLT discrimination index (DI) (5XFAD mice): increase in the discrimination index (DI) | PSD95 protein levels (PSD95): increase in PSD95 | Il-6 gene expression [1, 2]: clear tendency to reduce both cytokines | Ngf gene expression [1, 2]: significant increase in Ngf gene expression | Tnf-a gene expression [1, 2]: clear tendency to reduce both cytokines | Bdnf gene expression ([1]; both treated groups (Wt and 5XFAD)): clear tendency to increase
